Test system: patients with seasonal allergic rhinitis (SAR)
Assay: MP 428 study: individual symptom severity scores (runny nose, itchy nose, sneezing, congestion; 0-3 scale)
Assay type: in vivo, human
Conditions: Intent-to-Treat Population
Procedure: A two-week, randomized, double-blind study, which evaluated the effects of the co-administration of ASTELIN® (azelastine hydrochloride (HCl)) and FLONASE® (fluticasone propionate) compared to either product alone in patients with seasonal allergic rhinitis (SAR) was conducted during the 2006 Texas mountain cedar season. After a 5-day placebo lead-in period, 151 patients with moderate-to-severe allergic rhinitis symptoms were randomized to either: (1) (49 total patients) ASTELIN® (azelastine hydrochloride (HCl)) plus placebo saline nasal spray 2 sprays per nostril, 15 minutes apart, twice daily (AM & PM); (2) (50 total patients) FLONASE® (fluticasone propionate) plus placebo saline nasal spray, 2 sprays per nostril, 15 minutes apart, once daily (AM) and two sessions of placebo saline nasal spray, 2 sprays per nostril, 15 minutes apart (PM); or (3) (52 total patients) the co-administration of ASTELIN® (azelastine hydrochloride (HCl)) 2 sprays per nostril plus FLONASE® (fluticasone propionate) 2 sprays per nostril (AM), 15 minutes apart, and ASTELIN® (azelastine hydrochloride (HCl)) 2 sprays per nostril plus placebo saline nasal spray, 15 minutes apart, (PM) for a 2-week double-blind treatment period.
The primary efficacy variable was the change from baseline in the Total Nasal Symptom Score (TNSS), which comprised sneezing, itchy nose, runny nose, and nasal congestion (individual symptoms scores were assigned a value between 0 and 3, where 0=no symptoms and 3=severe symptoms). This study was not statistically designed to assess the differences between ASTELIN® and FLONASE®.
The results of the clinical trial are summarized and presented in Appendix A hereinbelow and in FIGS. 1-6. […] FIGS. 2-5 show the mean improvement in severity score (0-3 scale) from baseline for the symptoms of runny nose, itchy nose, sneezing and congestion, respectively.

With `CCC(=O)O[C@]1(C(=O)SCF)[C@H](C)C[C@H]2[C@@H]3C[C@H](F)C4=CC(=O)C=C[C@]4(C)[C@@]3(F)[C@@H](O)C[C@@]21C` [Fluticasone, fluticasone propionate] as the compound, how does the “Percent Change from Baseline in AM and PM Combined Nasal Symptom Score: Congestion, LS Mean” value (from here on “Percent Change … Congestion, LS Mean”) (Day 5) read?
The value was −18.74%.

What about the “Percent Change from Baseline in AM and PM Combined Nasal Symptom Score: Congestion, Mean” value (shortened to “Percent Change from Baseline … Congestion, Mean”) (Day 5) of the same compound?
The value was −19.38%.

What about the “Percent Change from Baseline in AM and PM Combined Nasal Symptom Score: Congestion, Median” value (“Percent Change … Congestion, Median” for short) (Day 5) of the same compound?
The value was −14.29%.

What about the “Percent Change from Baseline in AM and PM Combined Nasal Symptom Score: Itchy Nose, LS Mean” value (from here on “Percent Change … Itchy Nose, LS Mean”) (Day 5) of the same compound?
The value was −25.02%.

And the “Percent Change from Baseline in AM and PM Combined Nasal Symptom Score: Itchy Nose, Mean” value (shortened to “Percent Change from Baseline … Itchy Nose, Mean”) (Day 5)?
Its value is −24.64%.

And the “Percent Change from Baseline in AM and PM Combined Nasal Symptom Score: Itchy Nose, Median” value (“Percent Change … Itchy Nose, Median” for short) (Day 5)?
The value was −25.00%.

And the “Percent Change from Baseline in AM and PM Combined Nasal Symptom Score: Runny Nose, LS Mean” value (from here on “Percent Change … Runny Nose, LS Mean”) (Day 5)?
The value was −22.06%.

And the “Percent Change from Baseline in AM and PM Combined Nasal Symptom Score: Runny Nose, Mean” value (shortened to “Percent Change from Baseline … Runny Nose, Mean”) (Day 5)?
The value was −22.31%.

What about the “Percent Change from Baseline in AM and PM Combined Nasal Symptom Score: Runny Nose, Median” value (“Percent Change … Runny Nose, Median” for short) (Day 5) of the same compound?
The value was −21.31%.

And the “Percent Change from Baseline in AM and PM Combined Nasal Symptom Score: Sneezing, LS Mean” value (from here on “Percent Change from Baseline … Sneezing, LS Mean”) (Day 5)?
The value was −35.40%.

And the “Percent Change from Baseline in AM and PM Combined Nasal Symptom Score: Sneezing, Mean” value (“Percent Change from Baseline … Sneezing, Mean” for short) (Day 5)?
The value was −34.14%.

And the “Percent Change from Baseline in AM and PM Combined Nasal Symptom Score: Sneezing, Median” value (from here on “Percent Change from Baseline … Sneezing, Median”) (Day 5)?
Its value is −33.33%.

What about the “Change from Baseline in AM and PM Combined Nasal Symptom Score: Congestion, LS Mean” value (Day 6) of the same compound?
The value was −1.03.

And the “Change from Baseline in AM and PM Combined Nasal Symptom Score: Congestion, Mean” value (Day 6)?
The value was −1.10.

What about the “Change from Baseline in AM and PM Combined Nasal Symptom Score: Congestion, Median” value (Day 6) of the same compound?
The value was −0.83.

And the “Change from Baseline in AM and PM Combined Nasal Symptom Score: Itchy Nose, LS Mean” value (Day 6)?
Its value is −1.21.

And the “Change from Baseline in AM and PM Combined Nasal Symptom Score: Itchy Nose, Mean” value (Day 6)?
Its value is −1.21.

And the “Change from Baseline in AM and PM Combined Nasal Symptom Score: Itchy Nose, Median” value (Day 6)?
The value was −1.00.

What about the “Change from Baseline in AM and PM Combined Nasal Symptom Score: Runny Nose, LS Mean” value (Day 6) of the same compound?
Its value is −1.35.

What about the “Change from Baseline in AM and PM Combined Nasal Symptom Score: Runny Nose, Mean” value (Day 6) of the same compound?
The value was −1.35.

What about the “Change from Baseline in AM and PM Combined Nasal Symptom Score: Runny Nose, Median” value (Day 6) of the same compound?
Its value is −1.00.

And the “Change from Baseline in AM and PM Combined Nasal Symptom Score: Sneezing, LS Mean” value (Day 6)?
The value was −1.51.

And the “Change from Baseline in AM and PM Combined Nasal Symptom Score: Sneezing, Mean” value (Day 6)?
Its value is −1.44.

What about the “Change from Baseline in AM and PM Combined Nasal Symptom Score: Sneezing, Median” value (Day 6) of the same compound?
Its value is −1.27.

And the “Percent Change … Congestion, LS Mean” value (Day 6)?
Its value is −19.32%.

What about the “Percent Change from Baseline … Congestion, Mean” value (Day 6) of the same compound?
The value was −20.16%.

What about the “Percent Change … Congestion, Median” value (Day 6) of the same compound?
Its value is −14.29%.

What about the “Percent Change … Itchy Nose, LS Mean” value (Day 6) of the same compound?
The value was −27.12%.

And the “Percent Change from Baseline … Itchy Nose, Mean” value (Day 6)?
The value was −26.87%.

And the “Percent Change … Itchy Nose, Median” value (Day 6)?
Its value is −24.76%.

And the “Percent Change … Runny Nose, LS Mean” value (Day 6)?
The value was −22.60%.

What about the “Percent Change from Baseline … Runny Nose, Mean” value (Day 6) of the same compound?
Its value is −22.47%.

What about the “Percent Change … Runny Nose, Median” value (Day 6) of the same compound?
Its value is −18.64%.

And the “Percent Change from Baseline … Sneezing, LS Mean” value (Day 6)?
Its value is −32.10%.

What about the “Percent Change from Baseline … Sneezing, Mean” value (Day 6) of the same compound?
The value was −31.22%.

And the “Percent Change from Baseline … Sneezing, Median” value (Day 6)?
Its value is −32.77%.

What about the “Change from Baseline in AM and PM Combined Nasal Symptom Score: Congestion, LS Mean” value (Day 7) of the same compound?
Its value is −1.03.

What about the “Change from Baseline in AM and PM Combined Nasal Symptom Score: Congestion, Mean” value (Day 7) of the same compound?
The value was −1.10.

What about the “Change from Baseline in AM and PM Combined Nasal Symptom Score: Congestion, Median” value (Day 7) of the same compound?
The value was −1.08.

What about the “Change from Baseline in AM and PM Combined Nasal Symptom Score: Itchy Nose, LS Mean” value (Day 7) of the same compound?
Its value is −1.30.

And the “Change from Baseline in AM and PM Combined Nasal Symptom Score: Itchy Nose, Mean” value (Day 7)?
The value was −1.27.

And the “Change from Baseline in AM and PM Combined Nasal Symptom Score: Itchy Nose, Median” value (Day 7)?
Its value is −1.00.

What about the “Change from Baseline in AM and PM Combined Nasal Symptom Score: Runny Nose, LS Mean” value (Day 7) of the same compound?
Its value is −1.28.

What about the “Change from Baseline in AM and PM Combined Nasal Symptom Score: Runny Nose, Mean” value (Day 7) of the same compound?
The value was −1.31.

And the “Change from Baseline in AM and PM Combined Nasal Symptom Score: Runny Nose, Median” value (Day 7)?
Its value is −1.45.

What about the “Change from Baseline in AM and PM Combined Nasal Symptom Score: Sneezing, LS Mean” value (Day 7) of the same compound?
The value was −1.44.

And the “Change from Baseline in AM and PM Combined Nasal Symptom Score: Sneezing, Mean” value (Day 7)?
The value was −1.33.

And the “Change from Baseline in AM and PM Combined Nasal Symptom Score: Sneezing, Median” value (Day 7)?
Its value is −1.20.

And the “Percent Change … Congestion, LS Mean” value (Day 7)?
Its value is −19.42%.

And the “Percent Change from Baseline … Congestion, Mean” value (Day 7)?
The value was −20.17%.

What about the “Percent Change … Congestion, Median” value (Day 7) of the same compound?
The value was −21.31%.

What about the “Percent Change … Itchy Nose, LS Mean” value (Day 7) of the same compound?
Its value is −27.79%.

What about the “Percent Change from Baseline … Itchy Nose, Mean” value (Day 7) of the same compound?
Its value is −26.92%.

What about the “Percent Change … Itchy Nose, Median” value (Day 7) of the same compound?
Its value is −23.55%.

And the “Percent Change … Runny Nose, LS Mean” value (Day 7)?
The value was −18.01%.

What about the “Percent Change from Baseline … Runny Nose, Mean” value (Day 7) of the same compound?
The value was −18.63%.

And the “Percent Change … Runny Nose, Median” value (Day 7)?
The value was −28.99%.

What about the “Percent Change from Baseline … Sneezing, LS Mean” value (Day 7) of the same compound?
The value was −31.86%.

And the “Percent Change from Baseline … Sneezing, Mean” value (Day 7)?
The value was −30.14%.

And the “Percent Change from Baseline … Sneezing, Median” value (Day 7)?
The value was −31.32%.

What about the “Change from Baseline in AM and PM Combined Nasal Symptom Score: Congestion, LS Mean” value (Day 8) of the same compound?
Its value is −0.94.

And the “Change from Baseline in AM and PM Combined Nasal Symptom Score: Congestion, Mean” value (Day 8)?
The value was −0.98.

And the “Change from Baseline in AM and PM Combined Nasal Symptom Score: Congestion, Median” value (Day 8)?
The value was −0.83.

What about the “Change from Baseline in AM and PM Combined Nasal Symptom Score: Itchy Nose, LS Mean” value (Day 8) of the same compound?
The value was −1.33.

What about the “Change from Baseline in AM and PM Combined Nasal Symptom Score: Itchy Nose, Mean” value (Day 8) of the same compound?
Its value is −1.29.

And the “Change from Baseline in AM and PM Combined Nasal Symptom Score: Itchy Nose, Median” value (Day 8)?
The value was −1.15.

What about the “Change from Baseline in AM and PM Combined Nasal Symptom Score: Runny Nose, LS Mean” value (Day 8) of the same compound?
Its value is −0.95.

And the “Change from Baseline in AM and PM Combined Nasal Symptom Score: Runny Nose, Mean” value (Day 8)?
Its value is −0.98.

What about the “Change from Baseline in AM and PM Combined Nasal Symptom Score: Runny Nose, Median” value (Day 8) of the same compound?
Its value is −0.73.

What about the “Change from Baseline in AM and PM Combined Nasal Symptom Score: Sneezing, LS Mean” value (Day 8) of the same compound?
The value was −1.41.

What about the “Change from Baseline in AM and PM Combined Nasal Symptom Score: Sneezing, Mean” value (Day 8) of the same compound?
Its value is −1.29.

And the “Change from Baseline in AM and PM Combined Nasal Symptom Score: Sneezing, Median” value (Day 8)?
Its value is −1.25.

And the “Percent Change … Congestion, LS Mean” value (Day 8)?
The value was −17.55%.

What about the “Percent Change from Baseline … Congestion, Mean” value (Day 8) of the same compound?
Its value is −17.88%.

What about the “Percent Change … Congestion, Median” value (Day 8) of the same compound?
Its value is −14.29%.

And the “Percent Change … Itchy Nose, LS Mean” value (Day 8)?
The value was −28.16%.

What about the “Percent Change from Baseline … Itchy Nose, Mean” value (Day 8) of the same compound?
The value was −27.33%.

And the “Percent Change … Itchy Nose, Median” value (Day 8)?
Its value is −30.22%.

And the “Percent Change … Runny Nose, LS Mean” value (Day 8)?
The value was −11.82%.

And the “Percent Change from Baseline … Runny Nose, Mean” value (Day 8)?
The value was −12.38%.

What about the “Percent Change … Runny Nose, Median” value (Day 8) of the same compound?
Its value is −14.29%.

What about the “Percent Change from Baseline … Sneezing, LS Mean” value (Day 8) of the same compound?
The value was −28.16%.

What about the “Percent Change from Baseline … Sneezing, Mean” value (Day 8) of the same compound?
The value was −26.04%.

And the “Percent Change from Baseline … Sneezing, Median” value (Day 8)?
Its value is −31.03%.
